{
  "source": "patent US9637529B2",
  "about": "“Medicament for atrophy treatment or increasing cell growth” (SIMU TRADE CONSULTING GMBH & CO. LEASING KG, priority 2012, dated 2017)",
  "key": {"[1]": {"system": "mouse satellite cells (MuMa23/P13)", "test": "AlamarBlue proliferation assay, primary satellite cells", "assay_type": "cell-based", "conditions": "24 hrs, SERF2 20 and 4 μg/ml", "protocol": "FIG. 4: Effect of SERF2 on Proliferation of mouse satellite cells (MuMa23/P13). Proliferation assay was performed essentially as in FIG. 2. Incubation time was 24 hrs, added SERF2 concentrations were 20 and 4 μg/ml, respectively.\nMuscle tissue was taken from male ICR mice and minced by using scissors and a scalpel. Following incubation in protease solution (Sigma, St. Lois) for 1 h at 37° C., remaining tissue clumps were dissociated by vigorousely pipetting and loaded onto a Percoll (Pharmacia) gradient (75%, 50%, 30%). After centrifugation for 20 min at 1250×g, cells were collected from the 2nd interphase (99% satellite cells), washed and cultured at a cell density of 1×10^5 cells/ml in 6-well plates. See also Danoviz ewt al. Methods Mol Biol. 2012; 798: 21-52.\nProliferation was measured using the AlamarBlue™ assay according to the manufacturer's protocol. Briefly, 1×10^4 cells were seeded per well containing 100 μl growth medium. Cells were incubated over night at +37° C., 5% v/v CO^2 and humidified atmosphere. Prior performing the assay, viability of cells was checked under the microscope. Usually cells reached 60% confluence. Cells were washed three times with 100 μl DPBS per well. […] Fluorescence (Ex. 570 nm, Em. 585 nm) was measured using a Varioskan Flash multi-plate reader (Thermo Scientific). Data were evaluated using Microsoft Excel and GraphPad Prism V4."}, "[2]": {"system": "zebrafish", "test": "Zebrafish heart size / heart volume", "assay_type": "in vivo", "conditions": "7 dpf zebrafish incubated with different doses of SERF2", "protocol": "FIG. 13: a: Changes in heart size in 7 dpf old zebrafish incubated with different doses of SERF2. b: Changes in heart volume in 7 dpf old zebrafish incubated in different concentrations of SERF2 and erythropoietin (EPO). Significant differences to control animals are indicated by asterisks.\nSERF2 was administered by a) injection of the native protein into the yolk sac of 3 day post fertilization (dpf) animals and freshly fertilized eggs (2-8 cell stage) in various protein concentrations or chronic incubation with the native protein to supply it via diffusion. For in deep analysis of angiogenic effects flk-1 transgenic animals with gfp (green fluorescent protein) labelled endothelium were used. For all other experiments wildtype (wdt) animals were used.\nHeart size was determined by measurement of end diastolic dimensions and calculation of end diastolic volume as described by Schwerte et al. (Schwerte et al. The Journal of Experimental Biology. 2003; 206 (Pt 8):1299-1307)."}, "[3]": {"system": "human epithelial cell line (A431)", "test": "H2O2-induced apoptosis, trypan-blue staining, A431", "assay_type": "cell-based", "conditions": "200 mM H2O2, SERF2 5 μg/ml, 6 hours, serum-free", "protocol": "(§1) Experiments were performed in 6-well plates containing 5 ml cell culture medium (serum-free) per well and were seeded at a cell density of 1*10^6 cells/well and cultured overnight. On the next day 200 mM H2O2 or 200 mM H2O2 and SERF2 (5 μg/ml) was added to cultures. After 6 hours of incubation, the adherent cells were harvested, washed 3 times in PBS and dead cells were detected by trypan-blue staining using light microscopy. Shown is the percentage of dead cells.\n(§2) Trypan Blue staining is one of the most commonly used methods to determine the cell viability using light microscopy. Trypan blue can only stain cells if their membrane is damaged.\n(§3) The question was asked whether SERF2 has an effect on growth factor deprivation- or stress-induced apoptosis. The experimental protocol included addition of Hydrogen peroxide (H2O2), which is known to cause cellular stress and consequently apoptotic death in doses below 200 μM (Cox A., Carcinogenesis. 2007, Vol. 28, 10). Furthermore apoptosis was induced by deprivation of granulocyte macrophage colony-stimulating factor (GM-CSF) in cultures of TF-1 cells. These cells are dependent on the presence of a growth factor which is absolutely necessary for growth and differentiation of TF-1 cells."}, "[4]": {"system": "human epithelial cell line (MCF-7)", "test": "H2O2-induced apoptosis, trypan-blue staining, MCF-7", "assay_type": "cell-based", "conditions": "200 mM H2O2, SERF2 5 μg/ml, 6 hours, serum-free", "protocol": "as §1, §2, §3"}, "[5]": {"system": "human T-cell line (Jurkat)", "test": "H2O2-induced apoptosis, trypan-blue staining, Jurkat", "assay_type": "cell-based", "conditions": "200 mM H2O2, SERF2 5 μg/ml, 6 hours, serum-free", "protocol": "Experiments were performed in 6-well plates containing 5 ml cell culture medium (serum-free) per well and were seeded at a cell density of 1*10^6 cells/well and cultured overnight. On the next day 200 mM H2O2 (red bar) or 200 mM H2O2 and SERF2 (green bar; 5 μg/ml) was added to cultures. After 6 hours of incubation, the adherent cells were harvested, washed 3 times in PBS and dead cells were detected by trypan-blue staining using light microscopy. Shown is the percentage of dead cells.\nas §2, §3"}},
  "note": "“Also recorded” adds a separate entry of the source.",
  "data": [
    {"substance": "SERF2: Small EDRK-rich factor 2, mature protein of 59 amino acids (SEQ ID NO: 1) (MTRGNQRELARQKNMKKQSDSVKGKRRDDGLSAAARKQRDSEIMQQKQKKANEKKEEPK; homo sapiens)", "values": [
      {"measurement": "proliferative effect on mouse satellite cells", "setting": "[1]", "value": "proliferative effect in a dose-dependent manner"},
      {"measurement": "change in heart volume", "setting": "[2]", "value": "significant increase of the animals heart volume"},
      {"measurement": "protection from H2O2-induced apoptosis (percentage of dead cells), A431", "setting": "[3]", "value": "markedly reduced apoptosis; also recorded: protects a human epithelial cell line (A431) from H2O2-induced apoptosis"},
      {"measurement": "protection from H2O2-induced apoptosis (percentage of dead cells), MCF-7", "setting": "[4]", "value": "markedly reduced apoptosis; also recorded: protects a human epithelial cell line (MCF-7) from H2O2-induced apoptosis"},
      {"measurement": "protection from H2O2-induced apoptosis (percentage of dead cells), Jurkat", "setting": "[5]", "value": "markedly reduced apoptosis; also recorded: protects a human T-cell line (Jurkat) from H2O2-induced apoptosis"}
    ]}
  ]
}
